Measurements from patent US20240116985A1, “STAPLED PEPTIDES AND METHODS THEREOF” (priority 2020, published 2024).

biological target: T1, full-length beta-Catenin (Uniprot ID P35222) (Homo sapiens, UniProt P35222); experiment: Fluorescence polarization IC50 (beta-catenin / 5FAM-TCF4 10-53 competition); type: binding; details: beta-Catenin FP IC50, fluorescence polarization
T1 construct: 10 nM full-length beta-Catenin (Uniprot ID P35222)
T1 sequence (P35222 1-781): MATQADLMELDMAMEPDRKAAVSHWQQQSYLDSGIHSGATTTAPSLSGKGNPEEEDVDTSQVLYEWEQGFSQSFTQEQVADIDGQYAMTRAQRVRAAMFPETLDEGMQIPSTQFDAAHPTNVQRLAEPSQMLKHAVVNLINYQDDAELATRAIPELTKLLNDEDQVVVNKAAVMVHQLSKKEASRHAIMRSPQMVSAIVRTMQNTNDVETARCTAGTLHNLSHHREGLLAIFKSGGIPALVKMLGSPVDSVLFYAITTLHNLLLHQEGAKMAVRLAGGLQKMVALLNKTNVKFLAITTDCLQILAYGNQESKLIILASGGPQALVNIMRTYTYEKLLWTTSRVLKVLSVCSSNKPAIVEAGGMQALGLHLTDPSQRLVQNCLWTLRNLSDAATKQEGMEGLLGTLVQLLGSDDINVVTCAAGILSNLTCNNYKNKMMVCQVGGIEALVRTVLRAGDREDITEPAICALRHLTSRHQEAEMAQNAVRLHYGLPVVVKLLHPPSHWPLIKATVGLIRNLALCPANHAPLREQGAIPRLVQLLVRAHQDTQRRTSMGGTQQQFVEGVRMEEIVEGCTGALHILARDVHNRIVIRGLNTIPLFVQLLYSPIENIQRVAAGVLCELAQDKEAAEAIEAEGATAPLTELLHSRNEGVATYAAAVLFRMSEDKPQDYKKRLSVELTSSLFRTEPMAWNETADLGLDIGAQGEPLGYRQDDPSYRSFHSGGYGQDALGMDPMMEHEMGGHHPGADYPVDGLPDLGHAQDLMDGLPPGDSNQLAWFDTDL

For `CC(=O)N1CCC[C@]12CC=CCCCC1(CCCC=CCCCOC(=O)N3CC[C@@](C(=O)N[C@@H](Cc4ccccc4Cl)C(=O)N[C@@H](Cc4csc5ccccc45)C(=O)N[C@@H](CC(C)C)C(N)=O)(C3)NC(=O)[C@H](CC(C)C)NC(=O)[C@H](Cc3ccccc3)NC(=O)[C@H](C)NC(=O)[C@H](C)NC(=O)[C@H](CC(=O)O)NC(=O)[C@H](CC(=O)O)NC1=O)NC(=O)[C@H](CO)NC(=O)[C@H](CC(=O)O)NC2=O` (stereo partly drawn) [I-1423, Ac-PL3-Asp-Ser-B5-Asp-Asp-Ala-Ala-Phe-Leu-PyrS2-2C1F-BztA-Leu-NH2], the IC50 was 389 nM.

same assay, conditions: fluorescence polarization; read-out: beta-Catenin FP IC50

Going from `CC(=O)N1CCC[C@]12CC=CCCCC1(CCCC=CCCCOC(=O)N3CC[C@@](C(=O)N[C@@H](Cc4ccccc4C(F)(F)F)C(=O)N[C@@H](Cc4csc5ccccc45)C(=O)N[C@@H](CO)C(N)=O)(C3)NC(=O)[C@H](CC(C)C)NC(=O)[C@H](Cc3ccccc3)NC(=O)[C@H](C)NC(=O)[C@H](C)NC(=O)[C@H](Cc3ccccc3C(=O)O)NC(=O)[C@H](CC(=O)O)NC1=O)NC(=O)[C@H](CC(C)(C)C)NC(=O)[C@H](CC(=O)O)NC2=O` (single isomer, unassigned) [I-1660, Ac-PL3-Asp-Npg-B5-Asp-2COOHF-Ala-Ala-Phe-Leu-PyrS2-2F3MeF-BztA-Ser-NH2] to `CC(=O)N1CCC[C@]12CC=CCCCC1(CCCC=CCCCOC(=O)N3CC[C@@](C(=O)N[C@@H](Cc4ccccc4C(F)(F)F)C(=O)N[C@@H](Cc4csc5ccccc45)C(=O)N[C@@H](CO)C(N)=O)(C3)NC(=O)[C@H](CC(C)C)NC(=O)[C@H](Cc3ccccc3)NC(=O)[C@H](C)NC(=O)[C@H](C)NC(=O)[C@H](Cn3cc(CCC(=O)O)nn3)NC(=O)[C@H](CC(=O)O)NC1=O)NC(=O)[C@H](CC(C)(C)C)NC(=O)[C@H](CC(=O)O)NC2=O` (stereo partly drawn) [I-2370, Ac-PL3-Asp-Npg-B5-Asp-[CH2CH2CO2H]TriAzDap-Ala-Ala-Phe-Leu-PyrS2-2F3MeF-BztA-Ser-NH2], the IC50 falls from 99 nM to 12 nM (8.2-fold). The second is the more potent here.

First: CC(=O)N1CCC[C@]12CC=CCCCC1(CCCC=CCCCOC(=O)N3CC[C@@](C(=O)N[C@@H](Cc4cccc(C5CC5)c4)C(=O)N[C@@H](Cc4ccccc4)C(=O)N[C@@H](CCC(N)=O)C(N)=O)(C3)NC(=O)[C@H](CC(C)C)NC(=O)[C@H](Cc3ccccc3)NC(=O)[C@H](C)NC(=O)[C@H](C)NC(=O)[C@H](Cc3cccc(C(=O)O)c3)NC(=O)[C@H](CC(=O)O)NC1=O)NC(=O)[C@H](CC(C)(C)C)NC(=O)[C@H](CC(=O)O)NC2=O (stereo partly drawn) [I-2215, Ac-PL3-Asp-Npg-B5-Asp-3COOHF-Ala-Ala-Phe-Leu-PyrS2-[CyPr]-3SF-Phe-Gln-NH2]
Second: CCOC(=O)C[C@@H]1NC(=O)[C@H](CC(=O)O)NC(=O)C2(CCCC=CCCCOC(=O)N3CC[C@@](C(=O)N[C@@H](Cc4ccsc4)C(=O)N[C@@H](Cc4csc5ccccc45)C(=O)N[C@@H](CCC(N)=O)C(N)=O)(C3)NC(=O)[C@H](CC(C)C)NC(=O)[C@H](Cc3ccccc3)NC(=O)[C@H](C)NC(=O)[C@H](C)NC1=O)CCCC=CC[C@]1(CCCN1C(C)=O)C(=O)N[C@@H](CC(=O)O)C(=O)N[C@@H](CC(C)(C)C)C(=O)N2 (stereo partly drawn) [I-2358, Ac-PL3-Asp-Npg-B5-Asp-[Et]AspE-Ala-Ala-Phe-Leu-PyrS2-3Thi-BztA-Gln-NH2]
The IC50 of the first is 3.3-fold higher: 1540 nM for the first, 463 nM for the second. The second is the more potent here.

Going from `CC(=O)N1CCC[C@]12CCCCCCC1(CCCCCCCCOC(=O)N3CC[C@@](C(=O)N[C@@H](Cc4ccsc4)C(=O)N[C@@H](Cc4csc5ccccc45)C(=O)N[C@@H](C)C(N)=O)(C3)NC(=O)[C@H](CC(C)C)NC(=O)[C@H](Cc3ccccc3)NC(=O)[C@H](C)NC(=O)[C@H](C)NC(=O)[C@H](CN(CC(=O)O)CC(F)(F)F)NC(=O)[C@H](CC(=O)O)NC1=O)NC(=O)[C@H](CC(C)(C)C)NC(=O)[C@H](CC(=O)O)NC2=O` (stereo partly drawn) [I-1720, Ac-PL3-Asp-Npg-B5-Asp-TfeGA-Ala-Ala-Phe-Leu-PyrS2-3Thi-BztA-Ala-NH2] to `CC(=O)N1CCC[C@]12CC=CCCCC1(CCCC=CCCCCOC(=O)N3CC[C@@](C(=O)N[C@@H](Cc4ccsc4)C(=O)N[C@@H](Cc4csc5ccccc45)C(=O)N[C@@H](CCC(N)=O)C(N)=O)(C3)NC(=O)[C@H](CC(N)=O)NC(=O)[C@H](Cc3ccccc3)NC(=O)[C@H](C)NC(=O)[C@H](C)NC(=O)[C@H]([C@@H](C)O)NC(=O)[C@H](CC(N)=O)NC1=O)NC(=O)[C@H](CC(C)(C)C)NC(=O)[C@H](CC(=O)O)NC2=O` (stereo partly drawn) [I-2199, Ac-PL3-Asp-Npg-B5-Asn-Thr-Ala-Ala-Phe-Asn-PyrS3-3Thi-BztA-Gln-NH2], the IC50 rises from 212 nM to 927 nM (4.4-fold). The first is the more potent here.

Compared with `CC(=O)N1CCC[C@]12CC=CCCCC1(CCCC=CCCCOC(=O)N3CC[C@@](C(=O)N[C@@H](Cc4cscn4)C(=O)N[C@@H](Cc4csc5ccccc45)C(=O)N[C@@H](CCO)C(N)=O)(C3)NC(=O)[C@H](CC(N)=O)NC(=O)[C@H](Cc3ccccc3)NC(=O)[C@H](C)NC(=O)[C@H](CCCCNC(C)C)NC(=O)[C@H](CCC(N)=O)NC(=O)[C@H](CC(=O)O)NC1=O)NC(=O)[C@H](CC1CCCCC1)NC(=O)[C@H](CC(N)=O)NC2=O` (stereo partly drawn) [I-2071, Ac-PL3-Asn-Cha-B5-Asp-Gln-iPrLys-Ala-Phe-Asn-PyrS2-4Thz-BztA-Hse-NH2], `CC(=O)N1CCC[C@]12CC=CCCCC1(CCCC=CCCCOC(=O)N3CC[C@@](C(=O)N[C@@H](Cc4ccccc4)C(=O)N[C@@H](Cc4csc5ccccc45)C(=O)N[C@@H](Cc4c[nH]cn4)C(N)=O)(C3)NC(=O)[C@H](CC(C)C)NC(=O)[C@H](Cc3ccccc3)NC(=O)[C@H](C)NC(=O)[C@H](CCCCNC(C)C)NC(=O)[C@H](CCC(N)=O)NC(=O)[C@H](CC(=O)O)NC1=O)NC(=O)[C@H](CC1CCCCC1)NC(=O)[C@H](CC(N)=O)NC2=O` (stereo partly drawn) [I-2351, Ac-PL3-Asn-Cha-B5-Asp-Gln-iPrLys-Ala-Phe-Leu-PyrS2-Phe-BztA-His-NH2] is 3.2-fold lower in IC50: 592 nM for the first, 187 nM for the second.

Compared with `CC(=O)N1CCC[C@]12CC=CCCCC1(CCCC=CCCCOC(=O)N3CC[C@@](C(=O)N[C@@H](Cc4ccsc4)C(=O)N[C@@H](Cc4csc5ccccc45)C(=O)N[C@@H](CCC(N)=O)C(N)=O)(C3)NC(=O)[C@H](CC(N)=O)NC(=O)[C@H](Cc3ccccc3N)NC(=O)[C@H](C)NC(=O)[C@H](C)NC(=O)[C@H](CC(=O)O)NC(=O)[C@H](CC(=O)O)NC1=O)NC(=O)[C@H](CC(C)(C)C)NC(=O)[C@H](CC(=O)O)NC2=O` (stereo partly drawn) [I-1728, Ac-PL3-Asp-Npg-B5-Asp-Asp-Ala-Ala-2NH2F-Asn-PyrS2-3Thi-BztA-Gln-NH2], `CC(=O)N1CCC[C@]12CC=CCCCC1(CCCC=CCCCOC(=O)N3CC[C@@](C(=O)N[C@@H](Cc4ccsc4)C(=O)N[C@@H](Cc4csc5ccccc45)C(=O)N[C@@H](CCC(N)=O)C(N)=O)(C3)NC(=O)[C@H](CC(N)=O)NC(=O)[C@H](Cc3ccccc3)NC(=O)[C@H](C)NC(=O)[C@H](C)NC(=O)[C@H](CC(N)=O)NC(=O)[C@H]([C@@H](C)O)NC1=O)NC(=O)[C@H](CC(C)(C)C)NC(=O)[C@H](CC(=O)O)NC2=O` (stereo partly drawn) [I-1559, Ac-PL3-Asp-Npg-B5-Thr-Asn-Ala-Ala-Phe-Asn-PyrS2-3Thi-BztA-Gln-NH2] is 690-fold higher in IC50: 14 nM for the first, 9680 nM for the second. The first is the more potent here.

Going from `CCCC[C@@H]1NC(=O)[C@H](Cc2ccccc2)NC(=O)[C@H](C)NC(=O)C(C)(C)NC(=O)[C@H](Cc2cccc(C(=O)O)c2)NC(=O)[C@H](CC(=O)O)NC(=O)C2(CCCC=CCCCOC(=O)N3CC[C@@](C(=O)N[C@@H](Cc4ccsc4)C(=O)N[C@@H](Cc4csc5ccccc45)C(=O)N[C@@H](CCC(=O)N4CCC(N5CCCCC5)CC4)C(N)=O)(C3)NC1=O)CCCC=CC[C@]1(CCCN1C(C)=O)C(=O)N[C@@H](CC(=O)O)C(=O)N[C@@H](CC(C)(C)C)C(=O)N2` (stereo partly drawn) [I-2555, Ac-PL3-Asp-Npg-B5-Asp-3COOHF-Aib-Ala-Phe-nLeu-PyrS2-3Thi-BztA-[4Pippip]GlnR-NH2] to `CC(=O)N1CCC[C@]12CC=CCCCC1(CCCC=CCCCOC(=O)N3CC[C@@](C(=O)N[C@@H](Cc4ccsc4)C(=O)N[C@@H](Cc4csc5ccccc45)C(=O)N[C@@H](CCC(N)=O)C(N)=O)(C3)NC(=O)[C@H](CC(N)=O)NC(=O)[C@H](Cc3ccccc3)NC(=O)[C@H](C)NC(=O)[C@H](C)NC(=O)[C@H]([C@@H](C)O)NC(=O)[C@H](CC(N)=O)NC1=O)NC(=O)[C@H](C)NC(=O)[C@H](CC(=O)O)NC2=O` (stereo partly drawn) [I-2003, Ac-PL3-Asp-Ala-B5-Asn-Thr-Ala-Ala-Phe-Asn-PyrS2-3Thi-BztA-Gln-NH2], the IC50 rises from 11 nM to 1020 nM (93-fold). The first is the more potent here.

Work on `CC(=O)N1CCC[C@]12CC=CCCCC1(CCCC=CCCCOC(=O)N3CC[C@@](C(=O)N[C@@H](Cc4ccccc4)C(=O)N[C@@H](Cc4csc5ccccc45)C(=O)N[C@@H](CCCCNC(C)C)C(N)=O)(C3)NC(=O)[C@H](CCCCNC(C)C)NC(=O)[C@H](Cc3ccccc3)NC(=O)[C@H](C)NC(=O)[C@H](CCCCNC(C)C)NC(=O)[C@H](CCC(N)=O)NC(=O)[C@H](CC(=O)O)NC1=O)NC(=O)[C@H](CC(C)(C)C)NC(=O)[C@H](CC(N)=O)NC2=O` (stereo partly drawn) [I-1654, Ac-PL3-Asn-Npg-B5-Asp-Gln-iPrLys-Ala-Phe-iPrLys-PyrS2-Phe-BztA-iPrLys-NH2] yielded an IC50 of 2130 nM.
